One data set relates to Rattus norvegicus. To be noted: for LD50: acute, oral, mortality.
Another data set relates to Oryctolagus sp. The following applies: reproduction developmental; body weight.
In the next data set the test system is Daphnia magna. The following applies: chronic/long-term; duration: 21 days; reproduction.
For the next data set, the system named is Apis mellifera. To be noted: acute, mortality.
The subject of another data set is Bibionidae. To be noted: chronic/long-term; other.
Another data set has as its system Oncorhynchus mykiss. The following applies: acute; duration: 96 hours; mortality.
A further data set deals with Pleurozium sp. To be noted: acute; duration: 96 hours; biomass.
For another data set, the system named is Neomysis kadiakensis. To be noted: acute; duration: 96 hours; mortality.
In another data set the test system is Pimephales promelas. To be noted: chronic/long-term; duration: 34 days; other.
A further data set concerns Landoltia sp. To be noted: chronic/long-term; duration: 7 days; biomass.

As a reminder, the NOAEL is the highest dose or exposure tested at which no adverse effect was seen.

The compound `CS(=O)(=O)c1ccc(C(=O)C2C(=O)C(O)CC(O)C2=O)c(Cl)c1COCC(F)(F)F` (configuration not stated) registered an LD50 in the data set on Rattus norvegicus of more than 2000 mg/kg-day. Further, the NOAEL with Rattus norvegicus (subchronic, duration: 90 days) came out at 12.7 mg/kg-day; in the data set with Oryctolagus sp., 1 mg/kg-day.

In the case of `CS(=O)(=O)c1ccc(C(=O)C2C(=O)CCCC2=O)c(Cl)c1COCC(F)(F)F` [Tembotrione], the NOEC was 5 mg/L in the data set on Daphnia magna; 2 mg/L in the data set with Bibionidae; 100 mg/L with Oncorhynchus mykiss; 0.2 mg/L in the data set on Pleurozium sp.; 0.046 mg/L with Neomysis kadiakensis; 1.25 mg/kg in the data set on Tagia sp. (chronic/long-term, duration: 28 days, reproduction). The results for the NOEC with Colinus virginianus (reproduction developmental), in the data set on Pimephales promelas and with Landoltia sp. were 22.2 mg/kg-day, 0.604 mg/L and 0.0032 mg/L, respectively. Besides, the LD50 in the data set with Apis mellifera (dermal) was more than 100 µg/piece; with Apis mellifera (oral, unspecified) it was more than 92.8 µg/piece; in the data set with Colinus virginianus (acute, oral, mortality), more than 2250 mg/kg-day; in the data set on Rattus norvegicus, more than 2000 mg/kg-day. The LC50 in the data set on Tagia sp. (acute, duration: 14 days, mortality) was 1000 mg/kg; with Colinus virginianus (acute, oral, diet, mortality), more than 1790 mg/kg-day. For the same compound, the NOAEL with Rattus norvegicus (chronic, clinical signs) is 0.8 mg/kg-day; with Rattus norvegicus (chronic, duration: 2 years, F, ophthalmoscopic examination) it was 0.04 mg/kg-day; in the data set with Rattus norvegicus (subchronic, duration: 90 days, ophthalmoscopic examination) it was 0.07 mg/kg-day; in the data set on Oryctolagus sp., 1 mg/kg-day.

The values are drawn from EPA's ToxValDB 9.5 (doi:10.2903/j.efsa.2013.3131).
